# Source: US20100189648A1, “INHIBITORS FOR DISRUPTING THE INTERACTION OF UBIQUITINATION RELATED ENZYMES AND USES THEREOF” (priority 2006, published 2010)
# Where two headings read alike, the source gives them in different places.
# Tests used:
# Assay type in all cases: cell-based, human
# [1] = tested on: SKOV3; assay: MTT survival assay, ovarian cancer cell line (SKOV3); details: SKOV3 (second table)
# Procedure: (§1) The effect of the above identified compounds on anti-tumor activity in human carcinoma cells was determined by the MTT survival assay. The MTT assay is a commonly used method in evaluation of cell survival, based on the ability of viable cells to convert MTT (MTT, Sigma, Cat No. 044K5307), a soluble tetrazolium salt [3-(4,5-dimethylthuazole-2-yl)-2,5 diphenyl tetrazolium bromide], into an insoluble formazan precipitate, which is quantitated by spectrophotometry following solubilization in dimethyl sulfoxide (DMSO).
# (§2) In brief, different carcinoma cells were treated with negative control, various test articles at different concentration, and positive control (DDP), in 96-well tissue culture dishes. Each test article at different concentration is repeated 3 times.
# (§3) Different carcinoma cells were diluted with 10% FBS and RPM1640 or MEM media to a concentration of 3-5×10^4 per ml suspension. 100 microliter of cells were incubated in each well in 96-well tissue culture dishes at 37 C. The cells were incubated at 37 C on the first day. On the second day, media supernatant was removed and replaced with media and different concentration of test articles (100 microliter in each well). Three Negative control wells and three positive control (DDP) wells were also included. The 96-well plate were incubated at 37 C for another 68 hours. After 68 hours, supernatant of each well was removed. 100 microliter of 1 mg/ml MTT diluted in PBS was injected into each well. The cells were incubated at 37 C for another 4 hours. The cells were then solubilized in 150 microliter DMSO, mixed for 10 minutes and absorbance readings were taken using Microplate reader Bio-Rad Model 550 at 570 nm. IR (cell growth inhibition rate) % was calculated as (OD570 of negative control-OD570 with test article)/OD570 of negative control. IC50 (cell 50% inhibition concentration) at 95% confidence level was calculated with Bliss method.
# [2] = tested on: U251; assay: MTT survival assay, glioma cell line (brain tumor U251); details: U251 (second table)
# Procedure: as §1, §2, §3
# [3] = tested on: SMMC-7721; assay: MTT survival assay, liver cancer cell line (SMMC-7721); details: SMMC-7721 Experiment #2; for IC50: Homo sapiens
# Procedure: as §1, §2, §3
# [4] = tested on: MCF-7; assay: MTT survival assay, breast cancer cell line (MCF-7); details: for IC50: Homo sapiens
# Procedure: as §1, §2, §3
# [5] = tested on: Hela cells; assay: MTT survival assay, cervical cancer line (Hela cells); details: for IC50: Homo sapiens
# Procedure: as §1, §2, §3
# [6] = tested on: A459; assay: MTT survival assay, lung cancer cell line (A459); details: A459 Experiment #2; for IC50: Homo sapiens
# Procedure: as §1, §2, §3
# [7] = 95% confidence limits of IC50, read-out: IC50 (95% confidence level), interval
# [8] = Bliss method, unit not printed (concentrations in μg/ml), read-out: IC50 (95% confidence level)
structure (smiles),measurement,setting,value
Cc1ccc(S(=O)(=O)NCC(=O)NCC(c2ccccc2)c2c[nH]c3ccccc23)cc1 (centres unmarked) [Mol 640],IC50,"[1]; Homo sapiens, SK-OV-3, Bliss method, unit not printed (concentrations in μg/ml), read-out: IC50 (95% confidence level)",26.9 µg/mL
same,IR (%),[1]; 3.125 μg/ml,0%
same,OD(A570 nm),[1]; 3.125 μg/ml,0.716 ± 0.048
same,IR (%),[1]; 6.25 μg/ml,10.3%
same,OD(A570 nm),[1]; 6.25 μg/ml,0.628 ± 0.025
same,IR (%),[1]; 12.5 μg/ml,9.7%
same,OD(A570 nm),[1]; 12.5 μg/ml,0.632 ± 0.020
same,IR (%),[1]; 25 μg/ml,43.8%
same,OD(A570 nm),[1]; 25 μg/ml,0.394 ± 0.037
same,IR (%),[1]; 50 μg/ml,88.3%
same,OD(A570 nm),[1]; 50 μg/ml,0.082 ± 0.008
same,IR (%),[1]; 100 μg/ml,88.7%
same,OD(A570 nm),[1]; 100 μg/ml,0.079 ± 0.010
same,IC50,"[2]; Homo sapiens, U-251, Bliss method, unit not printed (concentrations in μg/ml), read-out: IC50 (95% confidence level)",11.7 µg/mL
same,IR (%),[2]; 3.125 μg/ml,9.2%
same,OD(A570 nm),[2]; 3.125 μg/ml,0.796 ± 0.055
same,IR (%),[2]; 6.25 μg/ml,20.6%
same,OD(A570 nm),[2]; 6.25 μg/ml,0.696 ± 0.054
same,IR (%),[2]; 12.5 μg/ml,59.6%
same,OD(A570 nm),[2]; 12.5 μg/ml,0.354 ± 0.021
same,IR (%),[2]; 25 μg/ml,90.3%
same,OD(A570 nm),[2]; 25 μg/ml,0.085 ± 0.012
same,IR (%),[2]; 50 μg/ml,90.1%
same,OD(A570 nm),[2]; 50 μg/ml,0.087 ± 0.012
same,IR (%),[2]; 100 μg/ml,89.7%
same,OD(A570 nm),[2]; 100 μg/ml,0.090 ± 0.014
same,IC50,[3]; [7],7.68 to 8.36 µg/mL
same,IC50,[3]; [8],8.02 µg/mL
same,IR (%),[3]; 3.125 μg/ml,53.4%
same,OD(A570 nm),[3]; 3.125 μg/ml,0.215 ± 0.008
same,IR (%),[3]; 6.25 μg/ml,39.8%
same,OD(A570 nm),[3]; 6.25 μg/ml,0.278 ± 0.013
same,IR (%),[3]; 12.5 μg/ml,41.9%
same,OD(A570 nm),[3]; 12.5 μg/ml,0.268 ± 0.013
same,IR (%),[3]; 25 μg/ml,56.6%
same,OD(A570 nm),[3]; 25 μg/ml,0.200 ± 0.002
same,IR (%),[3]; 50 μg/ml,80.2%
same,OD(A570 nm),[3]; 50 μg/ml,0.091 ± 0.002
same,IR (%),[3]; 100 μg/ml,78.7%
same,OD(A570 nm),[3]; 100 μg/ml,0.098 ± 0.014
same,IR (%),[4]; 3.125 μg/ml,10.5%
same,OD(A570 nm),[4]; 3.125 μg/ml,0.807 ± 0.016
same,IR (%),[4]; 6.25 μg/ml,21.5%
same,OD(A570 nm),[4]; 6.25 μg/ml,0.708 ± 0.058
same,IR (%),[4]; 12.5 μg/ml,28.1%
same,OD(A570 nm),[4]; 12.5 μg/ml,0.649 ± 0.036
same,IR (%),[4]; 25 μg/ml,89.6%
same,OD(A570 nm),[4]; 25 μg/ml,0.094 ± 0.012
same,IR (%),[4]; 50 μg/ml,89.1%
same,OD(A570 nm),[4]; 50 μg/ml,0.098 ± 0.012
same,IR (%),[4]; 100 μg/ml,92.3%
same,OD(A570 nm),[4]; 100 μg/ml,0.069 ± 0.007
same,IC50,"[4]; MCF7, 95% confidence limits of IC50, read-out: IC50 (95% confidence level), interval",12.3 to 16.1 µg/mL
same,IC50,"[4]; MCF7, Bliss method, unit not printed (concentrations in μg/ml), read-out: IC50 (95% confidence level)",14.1 µg/mL
same,IR (%),[5]; 0.41 μg/ml,12.3%
same,OD(A570 nm),[5]; 0.41 μg/ml,0.651 ± 0.044
same,OD(A570 nm),[5]; 1.23 μg/ml,0.826 ± 0.101
same,OD(A570 nm),[5]; 3.70 μg/ml,0.819 ± 0.085
same,IR (%),[5]; 11.11 μg/ml,12.2%
same,OD(A570 nm),[5]; 11.11 μg/ml,0.652 ± 0.057
same,IR (%),[5]; 33.33 μg/ml,76.8%
same,OD(A570 nm),[5]; 33.33 μg/ml,0.172 ± 0.010
same,IR (%),[5]; 100 μg/ml,89.5%
same,OD(A570 nm),[5]; 100 μg/ml,0.078 ± 0.023
same,IC50,[5]; [7],21.9 to 29.1 µg/mL
same,IC50,[5]; [8],25.3 µg/mL
same,IR (%),[6]; 3.125 μg/ml,−22.6%
same,OD(A570 nm),[6]; 3.125 μg/ml,0.781 ± 0.040
same,IR (%),[6]; 6.25 μg/ml,−12.5%
same,OD(A570 nm),[6]; 6.25 μg/ml,0.717 ± 0.020
same,IR (%),[6]; 12.5 μg/ml,6.9%
same,OD(A570 nm),[6]; 12.5 μg/ml,0.593 ± 0.034
same,IR (%),[6]; 25 μg/ml,63.6%
same,OD(A570 nm),[6]; 25 μg/ml,0.232 ± 0.006
same,IR (%),[6]; 50 μg/ml,87.2%
same,OD(A570 nm),[6]; 50 μg/ml,0.081 ± 0.010
same,IR (%),[6]; 100 μg/ml,87.1%
same,OD(A570 nm),[6]; 100 μg/ml,0.082 ± 0.014
same,IC50,[6]; [7],25.5 to 26.1 µg/mL
same,IC50,[6]; [8],25.8 µg/mL
